{"source": "patent US20250108038A1", "about": "(priority 2023, published 2025)", "key": {"CYP2B6 [1]": {"target": "T1, CYP2B6 (Homo sapiens, UniProt P20813)", "T1 sequence (P20813 1-491)": "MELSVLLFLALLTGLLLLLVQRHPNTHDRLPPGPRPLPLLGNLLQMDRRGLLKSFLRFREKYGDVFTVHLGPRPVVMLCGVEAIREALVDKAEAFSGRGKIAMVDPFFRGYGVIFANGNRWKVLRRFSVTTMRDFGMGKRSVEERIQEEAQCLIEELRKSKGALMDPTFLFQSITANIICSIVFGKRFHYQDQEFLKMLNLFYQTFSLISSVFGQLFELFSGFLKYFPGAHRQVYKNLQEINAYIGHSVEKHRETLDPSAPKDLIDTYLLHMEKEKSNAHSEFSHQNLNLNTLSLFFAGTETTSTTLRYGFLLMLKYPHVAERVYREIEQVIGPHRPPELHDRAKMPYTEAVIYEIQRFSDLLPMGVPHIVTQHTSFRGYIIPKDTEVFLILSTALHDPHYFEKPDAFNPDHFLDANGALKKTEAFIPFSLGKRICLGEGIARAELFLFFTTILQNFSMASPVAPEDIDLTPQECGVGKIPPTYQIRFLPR"}, "CYP2C9": {"target": "CYP2C9 (Homo sapiens, UniProt P11712)", "sequence (P11712 whole entry)": "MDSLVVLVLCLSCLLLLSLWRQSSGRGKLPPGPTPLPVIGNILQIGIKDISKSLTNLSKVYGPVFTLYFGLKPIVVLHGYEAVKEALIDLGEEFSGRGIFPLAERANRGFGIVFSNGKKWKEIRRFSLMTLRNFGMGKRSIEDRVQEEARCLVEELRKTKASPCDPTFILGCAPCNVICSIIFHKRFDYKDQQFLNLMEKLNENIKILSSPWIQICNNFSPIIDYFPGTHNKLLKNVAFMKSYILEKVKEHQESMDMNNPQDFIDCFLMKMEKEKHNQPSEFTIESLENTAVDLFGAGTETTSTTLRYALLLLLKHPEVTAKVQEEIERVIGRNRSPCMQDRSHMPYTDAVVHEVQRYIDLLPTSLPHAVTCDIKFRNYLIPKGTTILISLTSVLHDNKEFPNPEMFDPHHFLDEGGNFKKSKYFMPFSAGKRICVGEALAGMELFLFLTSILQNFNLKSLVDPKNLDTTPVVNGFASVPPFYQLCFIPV"}, "OAT3": {"target": "T2, OAT3 (Homo sapiens, UniProt Q8TCC7)", "T2 sequence (Q8TCC7 1-542)": "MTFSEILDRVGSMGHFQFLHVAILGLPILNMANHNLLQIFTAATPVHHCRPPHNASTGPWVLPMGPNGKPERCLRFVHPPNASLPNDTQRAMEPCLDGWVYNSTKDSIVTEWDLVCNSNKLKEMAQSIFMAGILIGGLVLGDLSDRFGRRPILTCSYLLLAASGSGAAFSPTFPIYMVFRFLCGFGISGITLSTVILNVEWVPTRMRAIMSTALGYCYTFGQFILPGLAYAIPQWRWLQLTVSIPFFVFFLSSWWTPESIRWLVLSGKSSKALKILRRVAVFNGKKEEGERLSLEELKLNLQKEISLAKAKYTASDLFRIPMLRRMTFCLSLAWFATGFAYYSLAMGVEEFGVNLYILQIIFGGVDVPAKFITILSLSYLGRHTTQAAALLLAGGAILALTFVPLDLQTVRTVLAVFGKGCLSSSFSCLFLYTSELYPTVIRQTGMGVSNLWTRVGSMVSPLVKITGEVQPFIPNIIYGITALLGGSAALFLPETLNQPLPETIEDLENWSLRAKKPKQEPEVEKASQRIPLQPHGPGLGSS", "assay": "Uptake transporter inhibition assay, OAT3 (estrone-3-sulfate)", "conditions": "for Maximum % inhibition: OAT3, HEK293 cells, E3S (1 μM), NIO: no inhibition observed", "method": "Uptake experiments were performed using HEK293 cells stably expressing the respective uptake transporters. The assays were conducted according to the actual SOLVO uptake transporter assay protocols (PR-ASY-UPT-General Protocol for Uptake Transporter Inhibition Assays).\nCells were cultured at 37° C. in a humidified atmosphere containing 5% CO2 and were plated onto standard 96-well tissue culture plates.\nBefore the experiment, the medium was removed, and the cells were washed twice with 100 μL of pre-warmed (37° C.) assay buffer listed in Table 15. The cells were pre-incubated at 37° C. for 30 minutes in assay buffer containing the test article at appropriate concentrations (Table 16), appropriate solvents for solvent controls and the reference inhibitor for reference inhibitor wells. After the pre-incubation step solutions were removed. Uptake experiments were performed at 37° C. in 50 μL of assay buffer containing the probe substrate and the test article or solvent and controls.\nAfter the experiment, cells were washed twice with 100 μL of appropriate cold buffer and lysed with 150 μL scintillation cocktail. Radiolabeled probe substrate transport was determined by liquid scintillation counting.\nUptake of the probe substrate in control cells provided background activity values for all data points."}, "CYP3A4": {"target": "CYP3A4 (Homo sapiens, UniProt P08684)", "sequence (P08684 whole entry)": "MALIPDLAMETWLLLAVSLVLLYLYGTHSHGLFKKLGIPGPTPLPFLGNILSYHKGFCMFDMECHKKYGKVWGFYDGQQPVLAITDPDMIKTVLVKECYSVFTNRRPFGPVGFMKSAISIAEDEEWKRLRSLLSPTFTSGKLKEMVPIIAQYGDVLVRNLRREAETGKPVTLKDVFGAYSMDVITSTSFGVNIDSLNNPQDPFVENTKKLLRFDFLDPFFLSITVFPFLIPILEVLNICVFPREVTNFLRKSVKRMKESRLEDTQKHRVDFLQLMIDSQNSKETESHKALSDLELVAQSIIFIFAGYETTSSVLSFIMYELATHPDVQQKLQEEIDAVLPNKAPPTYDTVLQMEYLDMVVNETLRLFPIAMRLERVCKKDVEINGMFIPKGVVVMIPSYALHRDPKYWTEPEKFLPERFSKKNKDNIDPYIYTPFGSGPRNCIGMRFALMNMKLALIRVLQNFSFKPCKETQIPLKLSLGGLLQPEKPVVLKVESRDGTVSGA", "conditions": "for Inhibition at Highest Test Article Concentration: 3A4, at 50 μM; for IC50: pooled human liver microsomes, 30 min"}, "CYP2B6 [2]": {"target": "T1, CYP2B6", "assay": "biochemical"}, "physchem": {"assay": "physchem", "conditions": "kinetic from dmso stock"}, "[3]": {"conditions": "10.00 μM nominal, 6.60 μM NSB corrected"}, "[4]": {"conditions": "100.00 μM nominal, 77.00 μM NSB corrected"}}, "note": "pIC50: −log10 of the molar value. Entries after “also recorded” stand apart in the source; their conditions may differ. Where two headings read alike, the source gives them in different places.", "data": [{"smiles": "Clc1ccc(C2(OCC3OCCO3)c3ccccc3C3=NCCN32)cc1", "note": "(stereo not shown) [Compound I-19]", "values": [{"measurement": "Inhibition at Highest Test Article Concentration", "setting": "CYP2B6 [1]; 2B6, Bupropion, at 50 μM", "value": 77.2, "unit": "at 50 μM %"}, {"measurement": "pIC50", "setting": "CYP2B6 [1]; microsomes", "value": 5.13}, {"measurement": "Inhibition at Highest Test Article Concentration", "setting": "CYP2C9; 2C9, Diclofenac, at 50 μM", "value": 53.3, "unit": "at 50 μM %"}, {"measurement": "IC50", "setting": "CYP2C9; pooled human liver microsomes, 30 min", "value": "did not inhibit"}, {"measurement": "Relative inhibition", "setting": "OAT3; [3]", "value": 5, "unit": "%"}, {"measurement": "Relative transporter specific accumulation", "setting": "OAT3; [3]", "value": "95.18 ± 1.71 % of control"}, {"measurement": "Transporter specific accumulation", "setting": "OAT3; [3]", "value": "10,323.00 ± 126.84 cpm"}, {"measurement": "Relative inhibition", "setting": "OAT3; [4]", "value": 42, "unit": "%"}, {"measurement": "Relative transporter specific accumulation", "setting": "OAT3; [4]", "value": "57.83 ± 0.99 % of control"}, {"measurement": "Transporter specific accumulation", "setting": "OAT3; [4]", "value": "6,272.33 ± 68.97 cpm"}, {"measurement": "Maximum % inhibition", "setting": "OAT3", "value": 42, "unit": "%"}, {"measurement": "Inhibition at Highest Test Article Concentration", "setting": "CYP3A4; Midazolam", "value": 28.4, "unit": "at 50 μM %"}, {"measurement": "Inhibition at Highest Test Article Concentration", "setting": "CYP3A4; Testosterone", "value": 57.5, "unit": "at 50 μM %"}, {"measurement": "IC50", "setting": "CYP3A4; substrate midazolam", "value": "did not inhibit"}, {"measurement": "IC50", "setting": "CYP3A4; substrate testosterone", "value": "did not inhibit"}]}, {"smiles": "OC1(c2ccc(Cl)cc2)c2ccccc2C2=NCCN21", "note": "(stereo not shown) [Compound A, 5-(4-chlorophenyl)-2,3-dihydroimidazo[1,2-b]isoindol-5-ol, reference compound]", "values": [{"measurement": "Relative transporter specific accumulation", "setting": "OAT3; 3.00 μM nominal", "value": "97.60 ± 4.33 % of control"}, {"measurement": "Transporter specific accumulation", "setting": "OAT3; 3.00 μM nominal", "value": "3,883.00 ± 158.50 cpm"}, {"measurement": "Relative transporter specific accumulation", "setting": "OAT3; 30.00 μM nominal", "value": "89.65 ± 3.21 % of control"}, {"measurement": "Transporter specific accumulation", "setting": "OAT3; 30.00 μM nominal", "value": "3,566.67 ± 111.53 cpm"}, {"measurement": "Maximum % inhibition", "setting": "OAT3", "value": "NIO"}, {"measurement": "inhibition at 3 μM", "setting": "OAT3; human, Relative inhibition, 3.00 μM nominal", "value": 2, "unit": "%"}, {"measurement": "inhibition at 30 μM", "setting": "OAT3; human, Relative inhibition, 30.00 μM nominal", "value": 10, "unit": "%"}, {"measurement": "maximum inhibition of OAT3-mediated E3S accumulation", "setting": "OAT3; up to 100 μM (Compound A up to 30 μM)", "value": "did not inhibit; also recorded: not an in vitro inhibitor"}, {"measurement": "pIC50", "setting": "CYP2B6 [2]", "value": 7.04}, {"measurement": "solubility kinetic", "setting": "physchem; 32 °C, pH 7.4, aqueous buffer, transport buffer with sucrose for BCRP and MDR1 (pH 7.4, 32° C.)", "value": "≥ 50", "unit": "µM"}, {"measurement": "solubility kinetic", "setting": "physchem; 37 °C, pH 7.4, aqueous buffer, HBSS (pH 7.4) uptake assay buffer", "value": "≥ 30", "unit": "µM"}, {"measurement": "solubility kinetic", "setting": "physchem; 37 °C, pH 7.4, aqueous buffer, transport buffer for BSEP (pH 7.4)", "value": "≥ 35", "unit": "µM"}, {"measurement": "solubility kinetic", "setting": "physchem; 37 °C, pH 8, aqueous buffer, KH (pH 8.0) uptake assay buffer", "value": "≥ 30", "unit": "µM"}]}]}
